Measurements: patent US9216182B2, “Carbamate/urea derivatives containing piperidin and piperazin rings as H3 receptor inhibitors” (Novartis AG, priority 2011, dated 2015)

- melting point: 200.1 to 203.6 °C
SMILES: CC(C)N1CCN(C(=O)OC2CCN(c3ccc(C(N)=O)cn3)CC2)CC1 [Example 1.1, 1-(5-carbamoylpyridin-2-yl)piperidin-4-yl 4-isopropylpiperazine-1-carboxylate]
